# Test results from PubChem BioAssay (NCI).
#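 Growth conditions: 96-well plates. Treatment: test compound, 48 hours, 5 concentrations. Analysis: linear interpolation between bracketing concentrations; unreached endpoints set to highest concentration. TGI marks complete inhibition of growth.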
# Legend:
# Assay in all cases: NCI tumour cell line growth inhibition, 48 h
# [1] = tested on: HCC-2998 colon
# [2] = tested on: T-47D breast
# [3] = tested on: UACC-62 melanoma
# [4] = tested on: MCF7 breast
# [5] = tested on: OVCAR-4 ovarian
# [6] = tested on: OVCAR-5 ovarian
# [7] = tested on: RXF 393 renal
# [8] = tested on: A498 renal
# [9] = tested on: LOX IMVI melanoma
# [10] = tested on: UACC-257 melanoma
Structure (SMILES),TGI [1] [µM],TGI [2] [µM],TGI [3] [µM],TGI [4] [µM],TGI [5] [µM],TGI [6] [µM],TGI [7] [µM],TGI [8] [µM],TGI [9] [µM],TGI [10] [µM]
CC[N+](C)(CC)CCC(O)(c1ccccc1)c1ccccc1,> 100,> 100,> 100,> 100,> 100,> 100,> 100,> 100,> 100,> 100
CN(C)/N=C/c1cn(C)c(=O)n(C)c1=O,> 100,> 100,> 100,> 100,> 100,> 100,> 100,> 100,> 100,> 100
C(=C\c1cccc(/C=C/c2ccccn2)n1)/c1ccccn1,> 100,> 100,83.1,> 100,> 100,> 100,> 100,71.7,> 100,> 100
N#CC(C#N)=C1C(C#N)=C(N)NC12OCCO2,> 100,> 100,> 100,> 100,> 100,> 100,> 100,> 100,> 100,> 100
COc1cc2c(cc1OCCCC(=O)Nc1cc(C(=O)Nc3cc(C(=O)Nc4cc(C(=O)NCCCN(C)C)n(C)n4)n(C)n3)n(C)n1)N=CC1CCCN1C2=O (stereo not given),93.5,> 100,40.6,> 100,35.7,72.2,43.2,42.8,> 100,40.9
C=C(CCC(C)C1CCC2C3=C(C(=O)CC21C)C1(C)CCC(=O)[C@@H](C)C1CC3=O)C(C)C(=O)O (stereo not given in full),> 100,> 100,> 100,> 100,> 100,> 100,57.4,> 100,33.8,> 100
O=C1NC(=O)/C(=C/c2ccc(S(=O)(=O)N/N=C/c3ccc(Cl)cc3)cc2)N1,> 100,> 100,> 100,> 100,> 100,> 100,> 100,> 100,> 100,> 100
CN(C)CCNC(=O)c1ccc(NCCCN(C)CCCNc2ccc3c(=O)n(CCN(C)C)c(=O)n4c5ccccc5c(=O)c2c34)c2c(=O)c3ccccc3[nH]c12,0.146,1.89,0.239,0.344,0.197,0.68,0.271,0.415,0.119,0.718
Cc1cc(C)c(P2C(=C(O[Si](C(C)C)(C(C)C)C(C)C)C(C)(C)C)C2(c2ccccc2)c2ccccc2)c(C)c1 (stereo not given),> 100,> 100,> 100,> 100,> 100,> 100,> 100,> 100,> 100,> 100
CC(=O)O[C@@H]1C[C@@]23C[C@@]24CC[C@H](OC2OCC(O)C(O)C2O)C(C)(C)[C@@H]4CC=C3[C@]2(C)C[C@@H]3OC4(C[C@@H](C)[C@@H]3[C@@]12C)OC(O)[C@@]1(C)O[C@@H]41 (stereo not given in full),40.5,97.7,54.8,> 100,> 100,> 100,37.1,> 100,57,67
COc1cc(/C=C/C(=O)c2c(=O)o[nH][n+]2-c2ccccc2)ccc1[O-],6.28,11.7,13.7,13.8,7.17,25.6,4.65,20.2,6.75,12.4
O=C(CSCC(=O)N/N=C/c1cccs1)N/N=C/c1cccs1,> 100,> 100,> 100,> 100,> 100,> 100,> 100,> 100,> 100,> 100
O=CC(O)C(O)C(O)C(O)C(=O)NCCCCCCCCCCCCNC(=O)C(O)C(O)C(O)C(O)C=O (stereo not given),> 100,> 100,> 100,> 100,> 100,> 100,> 100,> 100,> 100,> 100
CCNc1ccc2c(c1)Cc1ccccc1-2,> 100,> 100,> 100,> 100,> 100,> 100,> 100,> 100,> 100,> 100
CC(C)=CCC[C@@H](C)C1=C(Nc2ccccc2Cl)C(O)=C(C)C(=O)C1=O,31,34.1,18,> 100,43.3,> 52,32.7,27.4,98.4,27.7
Cc1ccc(C2=NOC(=O)[C@@H]3CCCC[C@@H]23)cc1,> 100,> 100,> 100,> 100,> 100,> 100,> 100,> 100,> 100,> 100
CC(=O)OCC1OC(n2c3c(c(-c4cccc5ccccc45)c(C#N)c2=S)CCCC3)C(OC(C)=O)C(OC(C)=O)C1OC(C)=O (stereo not given),> 100,> 100,> 100,> 100,> 100,> 100,> 100,> 100,> 100,> 100
CCOC(=O)C(NC(=O)N(C1=NCC(C)S1)C1CCCCC1)(OC)C(F)(F)F (stereo not given),> 100,> 100,> 100,62.2,> 100,> 100,45.5,44.4,60.8,> 100
CC[N+]1(C)CCC(O)(/C=C/c2ccc(OC)cc2)C(C(=O)/C=C/c2ccc(OC)cc2)C1 (stereo not given),46.4,24.6,43.8,> 42.6,> 59.6,44.1,28.4,31.4,> 22.5,42.4
Cc1ccc(C(=O)N/N=C(\N=Nc2cccc(Cl)c2)c2ccc(N(CCC#N)CCC#N)cc2C)cc1,> 100,> 100,> 100,> 100,> 100,> 100,> 100,> 100,> 100,> 100
Cc1nc2c3c(ncn2n1)Oc1c(c(-c2ccccc2)nn1-c1ccccc1)C3c1ccc(Cl)cc1 (stereo not given),> 100,> 100,> 100,> 100,> 100,> 100,> 100,> 100,> 100,> 100
